Laboratory results taken from US9808470B2, “Estrogenic components for use in the treatment of neurological disorders” (UNIVERSITE DE LIEGE, priority 2012, dated 2017).

Legend:
Type in all cases: in vivo
[1] = system: intact cells in hippocampus and cortex; assay: Ex.3 neuroprotective HIE rat model: intact cell counting
Protocol: Paraformaldehyde-fixed paraffin embedded samples of the removed brains were coronally sectioned at the same level of the hippocampus region in accordance to the Paxinos rat brain atlas (Paxinos and Watson 2007. In: The rat brain in stereotaxic coordinates, 6th edition). Thickness of sections was 5 μm. Hematoxylin-eosin staining was performed. Briefly, sections were deparaffinized in xylene and rehydrated in graded ethanol concentrations before staining. Slides were stained with hematoxylin, rinsed for a few seconds in water, then placed in 1% eosin and washed, dehydrated, and coverslipped.
Intact cell counting was performed on hematoxylin-eosin-stained sections of the rat pups brains at magnification 400× in 3 fields of the respective brain area. Countings were performed in cortex and hippocampus (regions: dentate gyrus (DG), subgranular zone (SGZ), cornu ammonis (CA1, CA2/CA3)). The sections were analyzed with the aid of a microscope (Olympus BX51, Olympus, Tokyo, Japan), an image scanner (DotSlide Digital Virtual Microscopy, Olympus, Germany) and ImageJ software (NIH, US).
Intact cells are uninjured. Injured cells are characterized by a pale eosinophilic staining along with non-uniform nuclear densities-shrunken, condensed, or pale and enlarged.
Newborn rat pups were assigned to one of the following 6 groups from postnatal day 4: Sham group (n=24), Vehicle group (n=14), E4 1 mg/kg/per day group (n=11), E4 5 mg/kg/per day group (n=14), E4 10 mg/kg/per day group (n=14), or E4 50 mg/kg/per day group (n=19). From postnatal day 4, rat pups were intraperitoneally injected either vehicle (Vehicle group) or E4 (1, 5, 10, or 50 mg/kg/per day in accordance to the E4 group assignment) or neither vehicle nor E4 (Sham group). At day 7, 30 minutes after last injection, animals were anesthetized with isoflurane (induction, 3.0%; maintenance, 1.5%), and the rat pups from Vehicle and E4 groups passed through surgery encompassing left common carotid artery double ligation and cut. After the procedure, the pups were returned to their dams and were allowed to recover for 1 hour. The pups were then placed in the humidified hypoxic in vivo cabinet (CoyLab, Grass Lake, Mich., USA). Hypoxia was produced by the inhalation of 11%-8% of oxygen balanced by nitrogen at decreased concentration of oxygen for 20 minutes, followed by inhalation of 8% oxygen and 92% nitrogen at constant concentration for 35 minutes. All the manipulations were performed at 37° C. The Sham group went through similar procedures without left common carotid artery ligation followed by hypoxia nor injection. Rat pups recovered with their dams and reared normally until being sacrificed at postnatal day 14.

[2] = Ex.8 therapeutic HIE rat model (E4 alone or combinations): rectal temperature; settings: vs sham
Protocol: All the compounds used for in vivo studies were dissolved in absolute Ethanol (ETOH) and further diluted in saline solution at a final concentration of ETOH 10%. An equal volume (5 μ1/g) of the solution was injected intraperitoneally (ip) into the pups from study groups. Rat pups from the vehicle group were ip injected a saline solution containing 10% ETOH. Rat pups from the Sham group were not injected at all.
To study the therapeutic effect of estetrol, newborn rat pups were assigned to one of the following 14 groups at postnatal day 7 (FIG. 23(B)): Sham group (n=12), Vehicle (n=15), 5 mg/kg/day E4 (n=11), 10 mg/kg/day E4 (n=11), 5 mg/kg/day E4+1.6 mg/kg/day PROG (n=11), 10 mg/kg/day E4+1.6 mg/kg/day PROG (n=11), 5 mg/kg/day E4+16 mg/kg/day PROG (n=11), 10 mg/kg/day E4+16 mg/kg/day PROG (n=13), 5 mg/kg/day E4+136 ng//kg/day E2 (n=11), 10 mg/kg/day E4+136 ng/kg/day E2 (n=11), 5 mg/kg/day E4+1.6 mg/kg/day PROG+136 ng/kg/day E2 (n=12), 10 mg/kg/day E4+1.6 mg/kg/day PROG+136 ng/kg/day E2 (n=11), 5 mg/kg/day E4+16 mg/kg/day PROG+136 ng/kg/day E2 (n=11), 10 mg/kg/day E4+16 mg/kg/day PROG+136 ng/kg/day (n=12) groups. […]
The rectal temperature of the rat pups was measured with a multipurpose thermometer (BAT-10R, Physitemp Instruments Inc., Clifton, N.J., US) along with a rectal probe (RET-4, BioMedical Instruments, Zollnitz, Germany) at 0, 2, and 4 hours after exposure to hypoxic insult. […]

[3] = system: vascular endothelial growth factor (VEGF); assay: Ex.8 therapeutic HIE rat model: VEGF staining; settings: 5 mg/kg/day E4, hippocampus (same region)
Protocol: To study the therapeutic effect of estetrol, newborn rat pups were assigned to one of the following 14 groups at postnatal day 7 (FIG. 23(B)): Sham group (n=12), Vehicle (n=15), 5 mg/kg/day E4 (n=11), 10 mg/kg/day E4 (n=11), 5 mg/kg/day E4+1.6 mg/kg/day PROG (n=11), 10 mg/kg/day E4+1.6 mg/kg/day PROG (n=11), 5 mg/kg/day E4+16 mg/kg/day PROG (n=11), 10 mg/kg/day E4+16 mg/kg/day PROG (n=13), 5 mg/kg/day E4+136 ng//kg/day E2 (n=11), 10 mg/kg/day E4+136 ng/kg/day E2 (n=11), 5 mg/kg/day E4+1.6 mg/kg/day PROG+136 ng/kg/day E2 (n=12), 10 mg/kg/day E4+1.6 mg/kg/day PROG+136 ng/kg/day E2 (n=11), 5 mg/kg/day E4+16 mg/kg/day PROG+136 ng/kg/day E2 (n=11), 10 mg/kg/day E4+16 mg/kg/day PROG+136 ng/kg/day (n=12) groups. […] After surgery, the pups were returned to their dams and allowed to recover for 1 hour. The pups were then placed in a humidified hypoxic in vivo cabinet (CoyLab). […]
The sections were heated in 10 mmol/L citrate buffer (pH 6.0) at 100° C. for 10 minutes. […] Samples were analyzed with the aid of a microscope (Olympus Vanox AHBT3, Olympus), and the ImageJ software 15 (NIH). The percentage of positively stained cells was quantified as a sum of positively stained either DCX or VEGF cells divided by the total number of DAPI positive cells expressed in percentage.

rectal temperature ([2]; 5 mg/kg/day E4, 4 h after HI, E4+E2 and E4+16 mg/kg/day PROG+E2): significantly higher rectal temperature
SMILES: C[C@]12CC[C@@H]3c4ccc(O)cc4CC[C@H]3[C@@H]1[C@@H](O)[C@@H](O)[C@@H]2O [E4, 1,3,5(10)-estratrien-3,15α,16α,17β-tetrol]
number of intact cells per visual field ([1]; 1 mg/kg E4 ip PND4-7 before HI, CA1): 43.2±2.435
number of intact cells per visual field ([1]; 1 mg/kg E4 ip PND4-7 before HI, CA2/CA3): 32.8±2.808
number of intact cells per visual field ([1]; 1 mg/kg E4 ip PND4-7 before HI, SGZ): 35.6±2.75
number of intact cells per visual field ([1]; 5 mg/kg E4 ip PND4-7 before HI, DG): 121.0±8.098
number of intact cells per visual field ([1]; 5 mg/kg E4 ip PND4-7 before HI, SGZ): 42.846±3.884
number of intact cells per visual field ([1]; 10 mg/kg E4 ip PND4-7 before HI, CA1): 57.4±4.566
number of intact cells per visual field ([1]; 10 mg/kg E4 ip PND4-7 before HI, SGZ): 47.6±4.672
number of intact cells per visual field ([1]; 50 mg/kg E4 ip PND4-7 before HI, CA2/CA3): 53.0±4.7
number of intact cells per visual field ([1]; 50 mg/kg E4 ip PND4-7 before HI, SGZ): 30.714±3.615
number of intact cells per visual field ([1]; 50 mg/kg E4 ip PND4-7 before HI, cortex): 76.286±3.962
rectal temperature ([2]; 10 mg/kg/day E4, 4 h after HI, E4+E2 and E4+16 mg/kg/day PROG): significant increase of the rectal temperature
VEGF positively stained cell percentage [3]: 54.05±3.51%
